Square brackets hold non-standard residues; d marks the D form. Ends that are not written are not given here.
Experiments:
avian pathogenic E. coli = conditions: prophylactic in ovo injection of chicken embryos; cited from earlier work
dTHP-1 cells [1] = test: RNA sequencing of DCATH-2 trained dTHP-1 cells; assay type: cell-based, human
Experimental: dTHP-1 cells (1×10^6/well) were primed for 24 h with DCATH-2 in 6 well plates containing 1 ml medium, using culture medium as control. After priming, cells were washed 3 times and left to rest for 3 days in culture medium. Cells were stimulated for 6 h with 50 ng/ml E. coli O111:B4 LPS or fresh medium. Supernatants were stored for cytokine analysis. Cells were harvested by rinsing once with ice-cold DPBS and lysing cells in 100 μl RLT buffer (Qiagen) containing 1% 2-mercaptoethanol. After scraping, per condition the contents of two wells were transferred into vials, flash frozen in liquid nitrogen and stored at −80° C. for analysis. Total RNA was extracted in RLT buffer (RNeasy kit, Qiagen) supplemented with 2-mercaptoethanol and purified using a Qiagen QiaSymphony SP system. RNA libraries were prepared using the Truseq stranded total RNA (ribo-zero) library prep kit (Illumina) according the manufacturer's recommendations. RNA-sequencing was done with a NextSeq 500 system 1×75 bp high-output kit. Single-end RNASeq reads were processed using the UMCU RNASeq pipeline (v2.3.0) with default settings. Read quality was assessed with FastQC (0.11.4) followed by splice-aware alignment against the human reference genome (GRCh37) with STAR (2.4.2a). RNA expression quantification was performed with htseq-count (0.6.0) in reverse-stranded mode. Differential gene expression analysis was carried out with the DESeq2 package in DEBrowser (https://debrowser.umassmed.edu/). In each comparsion, genes were selected with an absolute fold-change >1.5 and alpha P<0.05. Pathway enrichment analysis was performed in g:Profiler (https://biit.cs.ut.ee/gprofiler/) using separate FDR ranked differentially expressed gene lists for up and down regulated genes with a Benjamini-Hochberg FDR correction for multiple testing and a FDR<0.05 threshold. Enriched pathways of GO Biologic Processes were visualized in Cytoscape (http://www.cytoscape.org/) using EnrichmentMap (http://www.baderlab.org/Software/EnrichmentMap) and a FDR cutoff of 0.01. Similarity statistic threshold was set at Jaccard>0.25 and filtered for gene set sizes between 5 and 500 genes.

[2] = test system: Salmonella enteritidis 706; test: Antibacterial activity (intracellular killing) of DCATH-2 primed dTHP-1 cells; assay type: cell-based, Salmonella enterica subsp. enterica serovar enteritidis; conditions: 24 h DCATH-2 training; colonies after 24 h
Experimental: Antibacterial activity was determined according to Tang et al.. dTHP-1 cells were seeded in 6 well plates and primed with DCATH-2 or medium as described. Log-phase culture of Salmonella enterica subsp. enterica serovar enteritidis 706 (Se706) was added to each well at a MOI of 1. After 2 h incubation at 37° C., cells were washed twice with warm DPBS and further incubated for 1 h incubation at 37° C. with IMDM/FCS medium containing 300 μg/ml colistin. After incubation, cells were washed 3 times in DPBS and the lysed with 1% triton X-100. Well contents were serially diluted in tryptone soy broth (Oxoid), plated on tryptone soy agar and counted after 24 h at 37° C.

[3] = test system: Candida albicans ATCC10231; test: Candidacidal activity of DCATH-2 primed dTHP-1 cells; assay type: cell-based; conditions: 24 h DCATH-2 training; colonies after 48 h
Experimental: dTHP-1 cells were seeded in 6 well plates and primed with DCATH-2 or medium as described. Candida albicans ATCC10231 was grown in yeast malt broth (Oxoid) at 30° C., diluted in DPBS to 1×10^4 CFU/ml and added to each well (MOI of 0.03). After 5 h incubation at 30° C., supernatants were transferred and kept. The remaining cells were supplemented with 0.5 ml of sterile water, mixed vigorously and combined with their corresponding well supernatants. Serial dilutions prepared in yeast malt broth were plated onto yeast malt agar. Colonies were counted after 48 h at 30° C.

dTHP-1 cells [4] = test: Metabolomics of DCATH-2 trained dTHP-1 cells; assay type: cell-based, human
Experimental: dTHP-1 cells were seeded (1×10^6 cells/well) in 6 wells plates and primed during 24 h with 5 μM DCATH-2 as described using medium as control. Cell supernatants, cell lysates and medium controls were collected before and after 24 h priming in the absence and presence of 10 nM rapamycin, after washing followed by 3 days rest and after subsequent 24 h LPS (E. coli O111:B4) stimulation. For sample collections, cells were washed once in ice-cold PBS, lysed with by adding 1 ml cold methanol/acetonitrile/water (2:2:1) lysis buffer, scraped and transferred in to vials. Cell supernatants and medium control samples (10 μl) were directly mixed with 200 μl lysis buffer. Samples were shaken for 10 min at 4° C. and centrifuged for 15 min at 18,000×g and 4° C. Supernatants were flash frozen in liquid nitrogen and stored at −80° C. for analysis. Liquid chromatography-mass spectrometry analysis was performed using an Exactive mass spectrometer (Thermo Scientific), coupled to a Dionex Ultimate 3000 auto sampler and pump (Thermo Scientific). The mass spectrometry operated in polarity-switching mode with spray voltages of 4.5 and −3.5 kV. Metabolites were separated using a Sequant ZIC-pHILIC column (2.1×150 mm, […], guard column 2.1×20 mm, […]; Merck) using a linear gradient of acetonitrile and eluent A 20 mM (NH4)2CO3, 0.1% NH40H in ULC/MS grade water (Biosolve BV, Valkenswaard, The Netherlands) and a flow rate of 150 μl/min. Metabolites were identified and peak intensities quantified using LCquan software (Thermo Scientific) on the basis of exact mass within 5 ppm and further validated by concordance with retention times of commercially available standards. Peak intensities were normalized on cell counts of parallel wells before and after LPS stimulation.

[5] = DCATH-2 training, during LPS stimulation
[6] = RNAseq experiment, 24 h priming, 3 days rest, 6 h E. coli LPS stimulation
[7] = trained LPS-stimulated cells vs LPS-stimulated control cells
[8] = trained and rested cells vs unstimulated control cells
[9] = 5 μM, 24 h priming, 3 days rest
[10] = after 24 h E. coli LPS stimulation

rfgrflrkirrfrpkvtitiqgsarf-NH2 ([dR][dF]G[dR][dF][dL][dR][dK][dI][dR][dR][dF][dR][dP][dK][dV][dT][dI][dT][dI][dQ]G[dS][dA][dR][dF]-NH2; N-terminus assumed; SMILES CC[C@@H](C)[C@@H](NC(=O)[C@@H](CCCCN)NC(=O)[C@@H](CCCNC(=N)N)NC(=O)[C@@H](CC(C)C)NC(=O)[C@@H](Cc1ccccc1)NC(=O)[C@@H](CCCNC(=N)N)NC(=O)CNC(=O)[C@@H](Cc1ccccc1)NC(=O)[C@H](N)CCCNC(=N)N)C(=O)N[C@H](CCCNC(=N)N)C(=O)N[C@H](CCCNC(=N)N)C(=O)N[C@H](Cc1ccccc1)C(=O)N[C@H](CCCNC(=N)N)C(=O)N1CCC[C@@H]1C(=O)N[C@H](CCCCN)C(=O)N[C@@H](C(=O)N[C@@H](C(=O)N[C@@H](C(=O)N[C@@H](C(=O)N[C@@H](C(=O)N[C@H](CCC(N)=O)C(=O)NCC(=O)N[C@H](CO)C(=O)N[C@H](C)C(=O)N[C@H](CCCNC(=N)N)C(=O)N[C@H](Cc1ccccc1)C(N)=O)[C@H](C)CC)[C@H](C)O)[C@H](C)CC)[C@H](C)O)C(C)C) [DCATH-2, full D-amino acid analog of CATH-2]
colibacilossis-associated mortality and morbidity (avian pathogenic E. coli): considerably reduced | Log 2 fold change, gene AHNAK2 (dTHP-1 cells [1]; [5]): 1.12 | Log 2 fold change, gene CCL18 (dTHP-1 cells [1]; [5]): 2.81 | Log 2 fold change, gene CCRL2 (dTHP-1 cells [1]; [5]): 1.04 | Log 2 fold change, gene CD22 (dTHP-1 cells [1]; [5]): 1.18 | Log 2 fold change, gene CSF2 (dTHP-1 cells [1]; [5]): 1.81 | Log 2 fold change, gene CXCL3 (dTHP-1 cells [1]; [5]): 1.18 | Log 2 fold change, gene FAM213B (dTHP-1 cells [1]; [5]): 1.02 | Log 2 fold change, gene FOXF1 (dTHP-1 cells [1]; [5]): 1.21 | Log 2 fold change, gene HSPBAP1 (dTHP-1 cells [1]; [5]): 1.06 | Log 2 fold change, gene IL1A (dTHP-1 cells [1]; [5]): 1.15 | Log 2 fold change, gene IL6 (dTHP-1 cells [1]; [5]): 2.17 | Log 2 fold change, gene KLF2 (dTHP-1 cells [1]; [5]): 2.54 | Log 2 fold change, gene LIF (dTHP-1 cells [1]; [5]): 2.73 | Log 2 fold change, gene MFSD2A (dTHP-1 cells [1]; [5]): 1.04 | Log 2 fold change, gene MYLK (dTHP-1 cells [1]; [5]): 1.17 | Log 2 fold change, gene PTGS2 (dTHP-1 cells [1]; [5]): 1.29 | Log 2 fold change, gene SEPT3 (dTHP-1 cells [1]; [5]): 1.06 | Log 2 fold change, gene TIE1 (dTHP-1 cells [1]; [5]): 1.46 | Log 2 fold change, gene TNFSF15 (dTHP-1 cells [1]; [5]): 1.19 | Log 2 fold change, gene TRIM47 (dTHP-1 cells [1]; [5]): 2.45 | Log 2 fold change, gene TRPM8 (dTHP-1 cells [1]; [5]): 1.36 | Log 2 fold change, gene ZNF358 (dTHP-1 cells [1]; [5]): 1.04 | amplification of IL-6 production (dTHP-1 cells [1]; [6]): 3.3 fold | amplification of TNFα production (dTHP-1 cells [1]; [6]): 2.5 fold | downregulated DEGs (dTHP-1 cells [1]; [7]): 54 | upregulated DEGs (dTHP-1 cells [1]; [7]): 71 | downregulated DEGs (dTHP-1 cells [1]; [8]): 126 | upregulated DEGs (dTHP-1 cells [1]; [8]): 156 | inhibition of outgrowth of Salmonella enteritidis vs non-primed dTHP-1 cells [2]: 78±11% | inhibition of outgrowth of Candida albicans vs non-primed dTHP-1 cells [3]: 68±10% | TCA cycle and urea cycle (dTHP-1 cells [4]; [9]): not significantly affected | de novo pyrimidine synthesis (dTHP-1 cells [4]; [9]): increased | glycolysis (metabolic intermediates) (dTHP-1 cells [4]; [9]): increased | intracellular glucose concentrations (dTHP-1 cells [4]; [9]): lower | intracellular lactate levels (dTHP-1 cells [4]; [9]): higher | lactate secretion into the medium (dTHP-1 cells [4]; [9]): augmented | levels of intracellular medium-chain and long-chain acylcarnitines (dTHP-1 cells [4]; [9]): dramatically increased | usage of amino acids (dTHP-1 cells [4]; [9]): overall enhanced usage | TCA cycle, urea cycle or amino acid metabolism (dTHP-1 cells [4]; LPS stimulation of trained cells): did not affect | intracellular levels of medium-chain and long-chain acylcarnitines (dTHP-1 cells [4]; [10]): remained elevated | training induced metabolic shift during LPS stimulation (dTHP-1 cells [4]; [10]): maintained
